Measurements taken from ChEMBL document CHEMBL2439992, “Fused 3-Hydroxy-3-trifluoromethylpyrazoles Inhibit Mutant Huntingtin Toxicity” (ACS Med Chem Lett, 2013).
Converted amounts (≈) assume the structure as drawn. The source made the active and inactive calls. The calls are words filed in the database; no cut-off is given here.

Biological target: Huntingtin (Rattus norvegicus) (UniProt P51111)
Experiment: Inhibition of wild type huntingtin 171-18Q-mediated cell death in Sprague-Dawley rat striatal neurons at 1 to 30 uM by NeuN-positive cell counting assay
Conditions: not given

Huntingtin (Rattus norvegicus), sequence (P51111 whole entry): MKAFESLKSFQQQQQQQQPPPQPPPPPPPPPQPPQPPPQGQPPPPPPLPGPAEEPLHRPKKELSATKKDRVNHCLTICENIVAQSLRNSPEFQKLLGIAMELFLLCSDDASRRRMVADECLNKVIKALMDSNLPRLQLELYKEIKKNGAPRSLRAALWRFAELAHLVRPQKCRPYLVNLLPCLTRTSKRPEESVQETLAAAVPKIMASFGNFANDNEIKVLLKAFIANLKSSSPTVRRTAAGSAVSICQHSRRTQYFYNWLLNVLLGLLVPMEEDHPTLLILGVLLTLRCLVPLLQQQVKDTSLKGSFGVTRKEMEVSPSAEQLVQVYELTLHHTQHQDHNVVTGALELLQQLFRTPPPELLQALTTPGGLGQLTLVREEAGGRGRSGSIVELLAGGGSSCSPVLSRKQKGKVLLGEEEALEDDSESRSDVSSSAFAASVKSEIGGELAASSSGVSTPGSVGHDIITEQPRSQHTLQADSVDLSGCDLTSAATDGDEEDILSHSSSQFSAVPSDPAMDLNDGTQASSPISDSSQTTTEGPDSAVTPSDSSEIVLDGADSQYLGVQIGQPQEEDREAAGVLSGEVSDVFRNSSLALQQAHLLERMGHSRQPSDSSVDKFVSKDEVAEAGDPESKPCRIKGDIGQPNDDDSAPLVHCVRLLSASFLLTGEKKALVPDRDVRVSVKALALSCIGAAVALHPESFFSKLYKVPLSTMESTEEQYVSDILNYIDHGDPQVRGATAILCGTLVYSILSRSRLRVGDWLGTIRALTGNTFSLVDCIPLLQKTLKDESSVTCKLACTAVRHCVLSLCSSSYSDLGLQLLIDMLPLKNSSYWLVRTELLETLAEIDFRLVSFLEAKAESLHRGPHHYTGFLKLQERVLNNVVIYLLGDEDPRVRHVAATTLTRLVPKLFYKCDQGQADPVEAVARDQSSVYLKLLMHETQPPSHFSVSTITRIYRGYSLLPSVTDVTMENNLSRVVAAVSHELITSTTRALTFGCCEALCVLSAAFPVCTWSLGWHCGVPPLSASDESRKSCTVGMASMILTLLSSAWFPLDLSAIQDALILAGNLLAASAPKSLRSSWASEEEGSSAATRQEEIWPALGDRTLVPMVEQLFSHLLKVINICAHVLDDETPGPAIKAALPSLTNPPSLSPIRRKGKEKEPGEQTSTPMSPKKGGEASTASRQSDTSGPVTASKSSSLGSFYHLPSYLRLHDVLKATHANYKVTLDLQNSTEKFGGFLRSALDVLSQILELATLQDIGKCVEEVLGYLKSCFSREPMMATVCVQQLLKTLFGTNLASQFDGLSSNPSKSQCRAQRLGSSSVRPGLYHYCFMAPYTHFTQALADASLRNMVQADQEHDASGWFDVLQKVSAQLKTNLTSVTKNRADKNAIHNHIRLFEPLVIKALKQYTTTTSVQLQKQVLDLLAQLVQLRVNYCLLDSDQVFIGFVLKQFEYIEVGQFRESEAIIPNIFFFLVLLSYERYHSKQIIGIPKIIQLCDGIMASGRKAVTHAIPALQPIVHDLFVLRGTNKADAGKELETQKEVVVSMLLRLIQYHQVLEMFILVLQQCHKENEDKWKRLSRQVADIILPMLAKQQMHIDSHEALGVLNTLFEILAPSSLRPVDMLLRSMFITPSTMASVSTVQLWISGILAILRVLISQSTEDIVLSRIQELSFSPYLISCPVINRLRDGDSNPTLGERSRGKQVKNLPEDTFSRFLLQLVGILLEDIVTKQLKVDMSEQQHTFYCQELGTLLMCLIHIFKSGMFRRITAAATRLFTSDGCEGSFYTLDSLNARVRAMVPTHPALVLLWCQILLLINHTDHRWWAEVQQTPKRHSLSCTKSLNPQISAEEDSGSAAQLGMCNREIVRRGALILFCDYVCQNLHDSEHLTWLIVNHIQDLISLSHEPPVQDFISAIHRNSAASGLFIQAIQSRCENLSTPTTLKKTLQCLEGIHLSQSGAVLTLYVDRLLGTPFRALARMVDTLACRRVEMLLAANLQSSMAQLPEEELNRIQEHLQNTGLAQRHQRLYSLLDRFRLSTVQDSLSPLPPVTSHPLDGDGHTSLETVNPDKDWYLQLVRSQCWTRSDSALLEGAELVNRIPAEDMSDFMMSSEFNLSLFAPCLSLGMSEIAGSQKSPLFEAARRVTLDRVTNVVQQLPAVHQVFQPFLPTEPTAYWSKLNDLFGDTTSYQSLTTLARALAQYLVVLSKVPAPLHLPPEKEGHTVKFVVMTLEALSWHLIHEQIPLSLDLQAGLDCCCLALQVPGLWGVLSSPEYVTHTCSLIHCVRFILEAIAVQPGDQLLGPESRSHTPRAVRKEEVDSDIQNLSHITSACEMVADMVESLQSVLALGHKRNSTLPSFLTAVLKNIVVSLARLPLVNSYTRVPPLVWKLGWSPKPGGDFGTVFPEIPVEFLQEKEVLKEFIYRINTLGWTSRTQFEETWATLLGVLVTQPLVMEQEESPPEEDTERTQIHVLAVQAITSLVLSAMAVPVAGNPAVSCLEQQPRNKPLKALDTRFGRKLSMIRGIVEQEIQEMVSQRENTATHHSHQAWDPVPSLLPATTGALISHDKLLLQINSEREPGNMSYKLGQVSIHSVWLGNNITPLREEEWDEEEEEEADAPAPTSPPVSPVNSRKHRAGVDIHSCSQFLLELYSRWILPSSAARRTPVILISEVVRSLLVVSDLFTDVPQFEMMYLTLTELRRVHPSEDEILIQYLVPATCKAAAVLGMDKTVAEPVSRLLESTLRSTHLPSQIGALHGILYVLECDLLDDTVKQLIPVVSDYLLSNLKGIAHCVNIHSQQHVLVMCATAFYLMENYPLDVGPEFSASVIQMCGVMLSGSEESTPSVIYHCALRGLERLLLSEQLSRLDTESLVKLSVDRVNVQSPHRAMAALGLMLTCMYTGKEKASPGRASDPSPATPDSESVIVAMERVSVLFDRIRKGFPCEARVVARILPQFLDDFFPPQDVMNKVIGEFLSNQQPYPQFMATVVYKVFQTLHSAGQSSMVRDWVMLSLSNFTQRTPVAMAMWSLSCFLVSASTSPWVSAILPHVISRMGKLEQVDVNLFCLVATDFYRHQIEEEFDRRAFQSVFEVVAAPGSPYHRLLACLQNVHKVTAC

Compound | inhibition
Cn1cc(Br)c(C(=O)N2N=C3CCCC[C@@H]3[C@@]2(O)C(F)(F)F)n1 (racemic) | Active
O=C(c1ccncc1)N1N=C2CCCC[C@@H]2[C@@]1(O)C(F)(F)F (racemic) | Active

Tested on: not listed separately
Experiment: Intrinsic clearance in human liver microsomes at 1 uM in presence of NADPH
Assay type: ADME, Microsome
Conditions: read-out: CLH

microsomal CLint at 1 µM | Compound
17.7 µL/min/mg | Cn1cc(Br)c(C(=O)N2N=C3CCCC[C@@H]3[C@@]2(O)C(F)(F)F)n1 (racemic)
21.4 µL/min/mg | O=C(c1ccncc1)N1N=C2CCCC[C@@H]2[C@@]1(O)C(F)(F)F (racemic)

Tested on: not listed separately
Experiment: Permeability of the compound from apical to basolateral side of MDCK cells expressing MDR1 after 120 mins
Assay type: ADME, cell-based, Canis lupus familiaris
Conditions: dog, read-out: permeability

Papp A→B at 2 h | Compound
39.3 ×10⁻⁶ cm/s | Cn1cc(Br)c(C(=O)N2N=C3CCCC[C@@H]3[C@@]2(O)C(F)(F)F)n1 (racemic)
36 ×10⁻⁶ cm/s | O=C(c1ccncc1)N1N=C2CCCC[C@@H]2[C@@]1(O)C(F)(F)F (racemic)

Tested on: HEK293
Experiment: Inhibition of full-length huntingtin Q138 mutant (unknown origin) expressed in human T-RexTM-293 cells co-expressing CRE-Luc assessed as decrease of CREB-mediated transcription after 72 hrs by luciferase reporter gene based luminescence assay relative to control
Assay type: cell-based
Conditions: not given

Compound | Emax
Cn1cc(Br)c(C(=O)N2N=C3CCCC[C@@H]3[C@@]2(O)C(F)(F)F)n1 (racemic) | 29%
O=C(c1ccncc1)N1N=C2CCCC[C@@H]2[C@@]1(O)C(F)(F)F (racemic) | 42%

Tested on: not listed separately
Experiment: Cytotoxicity in Sprague-Dawley rat striatal neurons
Assay type: cell-based
Conditions: neuron

Compound | Activity
Cn1cc(Br)c(C(=O)N2N=C3CCCC[C@@H]3[C@@]2(O)C(F)(F)F)n1 (racemic) | Non-toxic
O=C(c1ccncc1)N1N=C2CCCC[C@@H]2[C@@]1(O)C(F)(F)F (racemic) | Non-toxic

Tested on: MDCK
Experiment: Efflux ratio of permeability […] in MDCK cells expressing MDR1 after 120 mins
Assay type: ADME, cell-based, Canis lupus familiaris
Conditions: dog, 2 h

Ratio | Compound
1 | Cn1cc(Br)c(C(=O)N2N=C3CCCC[C@@H]3[C@@]2(O)C(F)(F)F)n1 (racemic)
1.1 | O=C(c1ccncc1)N1N=C2CCCC[C@@H]2[C@@]1(O)C(F)(F)F (racemic)

Tested on: not listed separately
Experiment: Inhibition of full-length huntingtin Q138 mutant (unknown origin) expressed in human T-RexTM-293 cells co-expressing CRE-Luc assessed as decrease of CREB-mediated transcription after 72 hrs by luciferase reporter gene based luminescence assay
Assay type: cell-based
Conditions: HEK293, 72 h

EC50 | Compound
4.9 µM | Cn1cc(Br)c(C(=O)N2N=C3CCCC[C@@H]3[C@@]2(O)C(F)(F)F)n1 (racemic)
9.1 µM | O=C(c1ccncc1)N1N=C2CCCC[C@@H]2[C@@]1(O)C(F)(F)F (racemic)

Tested on: not listed separately
Experiment: Intrinsic clearance in mouse liver microsomes at 1 uM in presence of NADPH
Assay type: ADME, Microsome
Conditions: read-out: CLH

microsomal CLint at 1 µM | Compound
101 µL/min/mg | Cn1cc(Br)c(C(=O)N2N=C3CCCC[C@@H]3[C@@]2(O)C(F)(F)F)n1 (racemic)
54.6 µL/min/mg | O=C(c1ccncc1)N1N=C2CCCC[C@@H]2[C@@]1(O)C(F)(F)F (racemic)

Tested on: not listed separately
Experiment: Stability of the compound at pH 3 to 7.4 assessed as dehydration
Assay type: physicochemical
Conditions: buffer

Stability | Compound
Stable | Cn1cc(Br)c(C(=O)N2N=C3CCCC[C@@H]3[C@@]2(O)C(F)(F)F)n1 (racemic)
Stable | O=C(c1ccncc1)N1N=C2CCCC[C@@H]2[C@@]1(O)C(F)(F)F (racemic)

Tested on: not listed separately
Experiment: Kinetic solubility of the compound at pH 7.4
Assay type: physicochemical
Conditions: buffer, read-out: Kinetic_solubility

solubility kinetic | Compound
114 µM (≈ 45.1 µg/mL) | Cn1cc(Br)c(C(=O)N2N=C3CCCC[C@@H]3[C@@]2(O)C(F)(F)F)n1 (racemic)
98 µM (≈ 30.7 µg/mL) | O=C(c1ccncc1)N1N=C2CCCC[C@@H]2[C@@]1(O)C(F)(F)F (racemic)

Species: Rattus norvegicus
Experiment: Inhibition of huntingtin 171-82Q mutant-mediated cell death in Sprague-Dawley rat striatal neurons at 10 to 30 uM by NeuN-positive cell counting assay
Conditions: not given

Compound | inhibition
Cn1cc(Br)c(C(=O)N2N=C3CCCC[C@@H]3[C@@]2(O)C(F)(F)F)n1 (racemic) | Active
O=C(c1ccncc1)N1N=C2CCCC[C@@H]2[C@@]1(O)C(F)(F)F (racemic) | Active
